According to patent publication US9850283B2, “Macrocyclic inhibitors of the PD-1/PD-L1 and CD80(B7-1)/PD-L1 protein/protein interactions” (BRISTOL-MYERS SQUIBB COMPANY, priority 2013, dated 2017):
Where two headings read alike, the source gives them in different places. Positions of bridges follow the written chain, without caps; N, C: chain ends. Non-standard residues stand in square brackets, D forms with d. Residues, ends and D or L forms follow the SMILES beside them. ξ: configuration not given here. Pro(trans-4-Ph) = O=C(O)[C@@H]1C[C@@H](c2ccccc2)CN1; Phe(4-CH2NH2) = NCc1ccc(C[C@H](N)C(=O)O)cc1; Phe(4-Cl) = N[C@@H](Cc1ccc(Cl)cc1)C(=O)O; cisHyp = O=C(O)[C@@H]1C[C@H](O)CN1; Hyp = O=C(O)[C@@H]1C[C@@H](O)CN1; NMeF = CN[C@@H](Cc1ccccc1)C(=O)O; NMeNle = CCCC[C@H](NC)C(=O)O; NMeM = CN[C@@H](CCSC)C(=O)O; NMeA = CN[C@@H](C)C(=O)O; Dab = NCC[C@H](N)C(=O)O; Dap = NC[C@H](N)C(=O)O; ξC = NC(CS)C(=O)O; Sar = CNCC(=O)O

Tests used:
[1] = molecular target: T1, LK35.2-hPD-L1 cells / PE-labeled PD-1-Ig (Homo sapiens, UniProt Q9NZQ7); assay: LK35.2-hPD-L1 cell binding high-content screening assay; format: cell-based; conditions: cluster symbol, read-out: CBA IC50 cluster
T1 construct: expressed in transfected cells; host or cells: LK35.2 mouse B cell line
T1 sequence (Q9NZQ7 19-290): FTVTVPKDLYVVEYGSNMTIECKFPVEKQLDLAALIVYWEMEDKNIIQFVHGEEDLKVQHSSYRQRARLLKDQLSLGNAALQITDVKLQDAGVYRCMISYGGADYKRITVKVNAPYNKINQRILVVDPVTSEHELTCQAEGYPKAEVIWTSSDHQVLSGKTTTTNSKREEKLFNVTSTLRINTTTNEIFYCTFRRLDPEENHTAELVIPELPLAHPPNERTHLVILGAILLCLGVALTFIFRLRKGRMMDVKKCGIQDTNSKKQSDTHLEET
Method in brief: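 Binding of PE-conjugated human PD-1-Ig (1 nM final) to human PD-L1 stably expressed on a mouse B-cell line (LK35.2) was measured by high-content imaging after washes. Compound and labeled PD-1-Ig were co-incubated 1 h at 37 °C with cells in RPMI/10% FCS.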

[2] = molecular target: T2, Human PD-L1/PD-1 (Homo sapiens, UniProt Q9NZQ7); assay: HTRF PD-1-Ig/PD-L1-His binding assay (human PD-L1); conditions: cluster symbol; read-out: HTRF IC50 cluster
T2 construct: made in house; host or cells: HEK293T
T2 sequence (Q9NZQ7 with tags, fused parts or gaps): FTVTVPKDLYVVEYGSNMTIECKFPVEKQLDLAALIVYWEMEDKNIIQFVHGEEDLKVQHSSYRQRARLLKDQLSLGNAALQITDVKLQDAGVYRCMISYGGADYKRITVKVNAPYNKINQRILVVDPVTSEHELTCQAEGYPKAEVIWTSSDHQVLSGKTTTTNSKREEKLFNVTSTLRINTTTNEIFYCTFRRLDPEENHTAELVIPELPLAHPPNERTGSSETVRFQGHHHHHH
Method in brief: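 Soluble PD-1-Ig binding to PD-L1-His measured by HTRF in dPBS with 0.1% BSA and 0.05% Tween-20. Detection used europium cryptate anti-Ig antibody (1 nM final) and APC anti-His antibody (20 nM final) added on top of the binding reaction.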

[3] = cell binding assay, cell line not given
[4] = cell line of CBA not given (LK35.2-hPD-L1 or 293T-hPD-L1)

Structure (SMILES) | IC50 [1, 3] [nM] | IC50 [2] [nM] | IC50 [1, 4] [nM]
CCCC[C@H]1C(=O)N[C@@H](CCCNC(=N)N)C(=O)NC(C(=O)NCC(N)=O)CSCC(=O)N[C@@H](Cc2ccc(O)cc2)C(=O)N(C)[C@@H](C)C(=O)N[C@@H](CC(N)=O)C(=O)N2CCC[C@H]2C(=O)N[C@@H](Cc2cnc[nH]2)C(=O)N[C@@H](CO)C(=O)N2CCC[C@H]2C(=O)N[C@@H](Cc2c[nH]c3ccccc23)C(=O)N[C@@H](CO)C(=O)N[C@@H](Cc2c[nH]c3ccccc23)C(=O)N(C)[C@@H](CCSC)C(=O)N1C (some centres unmarked) [Example 9109] ({CH2CO}-Y[NMeA]NPHSPWSW[NMeM][NMeNle]R[ξC]G-NH2; thioether N-14) | 4.78 to 72.9 | 6.76 to 30.3 | 
CCCC[C@H]1C(=O)N(C)[C@@H](CCCC)C(=O)N[C@@H](CCN)C(=O)N[C@H](C(=O)NCC(N)=O)CSCC(=O)N[C@@H](Cc2ccc(O)cc2)C(=O)N(C)[C@@H](C)C(=O)N[C@@H](CC(=O)O)C(=O)N2CCC[C@H]2C(=O)N[C@@H](Cc2cnc[nH]2)C(=O)N[C@@H](CCC(N)=O)C(=O)N2C[C@H](O)C[C@H]2C(=O)N[C@@H](Cc2c[nH]c3ccccc23)C(=O)N[C@@H](CCN)C(=O)N[C@@H](Cc2c[nH]c3ccccc23)C(=O)N1C [Example 5046] ({CH2CO}-Y[NMeA]DPHQ[Hyp]W[Dab]W[NMeNle][NMeNle][Dab]CG-NH2; thioether N-14) | > 74.3 | 0.385 to 6.74 | 
CCCC[C@H]1C(=O)N(C)CC(=O)N[C@@H](CC(=O)O)C(=O)N[C@@H](C(C)C)C(=O)N(C)[C@@H](Cc2ccccc2)C(=O)N[C@@H](Cc2ccc(O)cc2)C(=O)N(C)CC(=O)N[C@@H](Cc2c[nH]c3ccccc23)C(=O)N[C@@H](Cc2ccc(O)cc2)C(=O)N[C@@H](CC(C)C)C(=O)N[C@H](C(=O)NCC(N)=O)CSCC(=O)N[C@@H](Cc2ccc(Cl)cc2)C(=O)N(C)[C@@H](Cc2ccccc2)C(=O)N1C [Example 3067] ({CH2CO}-[Phe(4-Cl)][NMeF][NMeNle][Sar]DV[NMeF]Y[Sar]WYLCG-NH2; thioether N-13) |  | 0.385 to 6.74 | 0.158 to 4.71
CCCC[C@H]1C(=O)N(C)[C@@H](CCCC)C(=O)N[C@@H](CCC(=O)O)C(=O)N[C@H](C(=O)NCC(N)=O)CSCC(=O)N[C@@H](Cc2ccc(O)cc2)C(=O)N(C)[C@@H](C)C(=O)N[C@@H](CC(=O)O)C(=O)N2CCC[C@H]2C(=O)N[C@@H](Cc2c[nH]cn2)C(=O)N[C@@H](CCCCN)C(=O)N2C[C@H](c3ccccc3)C[C@H]2C(=O)N[C@@H](Cc2c[nH]c3ccccc23)C(=O)N[C@@H](CCCCN)C(=O)N[C@@H](Cc2c[nH]c3ccccc23)C(=O)N1C [Example 14002] ({CH2CO}-Y[NMeA]DPHK[Pro(trans-4-Ph)]WKW[NMeNle][NMeNle]ECG-NH2; thioether N-14) | 0.158 to 4.71 | 0.385 to 6.74 | 
CCCC[C@H]1C(=O)N(C)[C@@H](CCCC)C(=O)N[C@@H](C)C(=O)N[C@H](C(=O)NCC(N)=O)CSCC(=O)N[C@@H](Cc2ccc(O)cc2)C(=O)N2CCC[C@H]2C(=O)N[C@@H](CC(=O)O)C(=O)N2CCC[C@H]2C(=O)N[C@@H](CN)C(=O)N[C@@H](CC(C)C)C(=O)N2C[C@@H](O)C[C@H]2C(=O)N[C@@H](Cc2c[nH]c3ccccc23)C(=O)N[C@@H](CCN)C(=O)N[C@@H](Cc2c[nH]c3ccccc23)C(=O)N1C [Example 1150] ({CH2CO}-YPDP[Dap]L[cisHyp]W[Dab]W[NMeNle][NMeNle]ACG-NH2; thioether N-14) |  | 0.385 to 6.74 | 0.158 to 4.71
CCCC[C@H]1C(=O)N(C)[C@@H](CCCC)C(=O)N[C@@H](CCCNC(=N)N)C(=O)N[C@H](C(=O)NCC(N)=O)CSCC(=O)N[C@@H](Cc2ccc(CN)cc2)C(=O)N(C)[C@@H](C)C(=O)N[C@@H](CC(N)=O)C(=O)N2CCC[C@H]2C(=O)N[C@@H](CN)C(=O)N[C@@H](CC(C)C)C(=O)N2C[C@H](O)C[C@H]2C(=O)N[C@@H](Cc2c[nH]c3ccccc23)C(=O)N[C@@H](CO)C(=O)N[C@@H](Cc2c[nH]c3ccccc23)C(=O)N1C [Example 7042] ({CH2CO}-[Phe(4-CH2NH2)][NMeA]NP[Dap]L[Hyp]WSW[NMeNle][NMeNle]RCG-NH2; thioether N-14) | 4.78 to 72.9 | 6.76 to 30.3 | 
CCCC[C@H]1C(=O)N2CCC[C@@H]2C(=O)N[C@@H](CC(=O)O)C(=O)N[C@@H](C(C)C)C(=O)N(C)[C@@H](Cc2ccccc2)C(=O)N[C@@H](CCCCN)C(=O)N2CCC[C@@H]2C(=O)N[C@@H](Cc2c[nH]c3ccccc23)C(=O)N[C@@H](Cc2ccc(O)cc2)C(=O)N[C@@H](CC(C)C)C(=O)N[C@H](C(=O)NCC(N)=O)CSCC(=O)N[C@@H](Cc2ccccc2)C(=O)N(C)[C@@H](Cc2ccccc2)C(=O)N1C [Example 3187] (HELM PEPTIDE1{[O=C(C[*:3])[*:2]].F.[meF].[CCCC[C@@H](C(=O)[*:2])N(C)[*:1]].[dP].D.V.[meF].K.[dP].W.Y.L.C.G.[am]}$PEPTIDE1,PEPTIDE1,1:R3-14:R3$$$V2.0) |  | 6.76 to 30.3 | 0.158 to 4.71
